The subject of experiment [1] is Aβ-treated mice. In words: Splash test in Aβ-treated mice. Format: in vivo. Particulars: mice 7 days after icv Aβ 4 µM; sublingual AKBA 5 mg/kg 30 min before testing; Aβ vs SHAM, Aβ+AKBA vs Aβ.
In experiment [2] the test system is Aβ-treated mice. The experiment is described as follows: Tail suspension test in Aβ-treated mice. Format: in vivo. Particulars: mice 7 days after icv Aβ 4 µM, sublingual AKBA 5 mg/kg 30 min before, Aβ vs SHAM.
The next experiment relates to noradrenaline (NA). In words: Noradrenaline quantification in PFC and HIPP by HPLC with electrochemical detection. Format: in vivo. The following applies: HIPP, mice 7 days after icv Aβ 4 µM; sublingual AKBA 5 mg/kg 30 min earlier. The protocol: (§1) All behavioral experiments were conducted at 5 or 30 min after sublingual administrations of AKBA or vehicle in either SHAM or Aβ-treated mice. Based upon behavioral outcomes observed, neurochemical and biochemical quantifications were performed 30 min after AKBA or vehicle administration in either SHAM or Aβ-treated mice.
(§2) Anesthetized animals were sacrificed by cervical dislocation. Brains were immediately removed and kept on ice for dissection of PFC and HIPP, according to the atlas of Paxinos and Franklin. Tissues were frozen and stored at −80 °C until analyses were carried out. Samples (PFC and HIPP) were homogenized (1:10 w/v) at 4 °C using a PBS buffer containing a 1:100 protease and phosphatase inhibitor cocktail (HALT inhibitors, Thermo Fisher Scientific, Cleveland, OH, USA) for biochemical analyses or perchloric acid 0.1 M for neurochemical analyses. Homogenates were centrifuged at 13,000× g at 4 °C for 20 min, and supernatants were used for further determinations.
(§3) 5-HT, noradrenaline (NA), and KYN levels were measured in the PFC and HIPP of mice by HPLC coupled with an electrochemical detector (Ultimate ECD, Thermo Scientific Dionex, Milan, Italy) as already reported. Separation was performed by a LC18 reverse phase column (Kinetex, 150 mm × 3.0 mm, ODS 5 μm; Phenomenex, Castel Maggiore-Bologna, Italy). The detection was accomplished by a thin layer amperometric cell (Thermo Scientific Dionex, Milan, Italy) with a 5 mm diameter glassy carbon electrode at a working potential of 400 mV (5-HT and NA) or 0.750 mV (KYN) vs. Pd. The mobile phase consisted of an aqueous buffer containing 75 mM NaH2PO4, 1.7 mM octane sulfonic acid, 0.3 mM EDTA, and acetonitrile 10%, buffered at pH 3.0. […] GLU concentrations were determined by HPLC coupled with fluorescence detection (emission length 460 nm; excitation length 340 nm), as previously published. […] Results were analyzed by Borwin software (version 1.50; Jasco, Cremella, Italy) and the amino acid concentration was expressed as µM. All data were normalized for total area weight and were expressed as concentration/mg of tissue.

A further experiment relates to glutamate (GLU). In words: Glutamate quantification in PFC and HIPP by HPLC with fluorescence detection. Particulars: mice 7 days after icv Aβ 4 µM, sublingual AKBA 5 mg/kg 30 min earlier. Format: in vivo. The protocol:
as §1, §2, §3

The next experiment concerns kynurenine (KYN). The experiment is described as follows: Kynurenine quantification in PFC and HIPP by HPLC with electrochemical detection. Format: in vivo. The following applies: mice 7 days after icv Aβ 4 µM, sublingual AKBA 5 mg/kg 30 min earlier. Here is the method: as §1, §2
(§4) 5-HT, noradrenaline (NA), and KYN levels were measured in the PFC and HIPP of mice by HPLC coupled with an electrochemical detector (Ultimate ECD, Thermo Scientific Dionex, Milan, Italy) as already reported. Separation was performed by a LC18 reverse phase column (Kinetex, 150 mm × 3.0 mm, ODS 5 μm; Phenomenex, Castel Maggiore-Bologna, Italy). The detection was accomplished by a thin layer amperometric cell (Thermo Scientific Dionex, Milan, Italy) with a 5 mm diameter glassy carbon electrode at a working potential of 400 mV (5-HT and NA) or 0.750 mV (KYN) vs. Pd. The mobile phase consisted of an aqueous buffer containing 75 mM NaH2PO4, 1.7 mM octane sulfonic acid, 0.3 mM EDTA, and acetonitrile 10%, buffered at pH 3.0. The flow rate was kept at 0.7 mL·min-1 by an isocratic pump (Shimadzu LC-10 AD, Kyoto, Japan). Data acquisition and integration were performed by using Chromeleon software (version 6.80, Thermo Scientific Dionex, Milan, Italy). GLU concentrations were determined by HPLC coupled with fluorescence detection (emission length 460 nm; excitation length 340 nm), as previously published. Analyses were carried out using an LC18 reverse phase column (Kinetex, 150 mm × 3.0 mm, ODS 5 μm; Phenomenex, Castel Maggiore, Bologna, Italy) and detection was accomplished by pre-column derivatization with ophthalaldehyde/mercaptopropionic acid. The mobile phase consisted of a 50 mM sodium acetate buffer, at pH 6.95, with gradient methanol increasing linearly from 2 to 30% (v/v) over a 40 min run. […] Results were analyzed by Borwin software (version 1.50; Jasco, Cremella, Italy) and the amino acid concentration was expressed as µM. All data were normalized for total area weight and were expressed as concentration/mg of tissue.

The next experiment has as its system 5-HT. In words: 5-HT quantification in PFC and HIPP by HPLC with electrochemical detection. The following applies: mice 7 days after icv Aβ 4 µM, sublingual AKBA 5 mg/kg 30 min earlier. Type of experiment: in vivo. Here is the method:
as §1, §2, §4

The subject of a further experiment is GFAP. The experiment is described as follows: Western blotting quantification of GFAP in PFC and HIPP. Format: in vivo. The following applies: mice 7 days after icv Aβ 4 µM, sublingual AKBA 5 mg/kg 30 min earlier. The protocol:
as §1, §2
(§5) The total amount of proteins was measured in homogenates by using Pierce BCA Assay (Thermo Fisher Scientific, Cleveland, OH, USA). Forty µg of the total lysate protein were separated by SDS-PAGE precast gels (Bio-Rad Laboratories Inc., Segrate (MI), Italy), transferred onto nitrocellulose membranes (Bio-Rad Laboratories Inc, Segrate (MI), Italy) and then blocked for 1 h in blocking buffer (SigmaAldrich, Milan, Italy). Rabbit polyclonal antibody against GFAP (Dako Products, USA; 1:2000), rabbit monoclonal antibody against CD11b (Abcam, Cambridge, MA, USA; ab133357, 1:1000) and mouse monoclonal antibody against NF-kB p65 (Santa Cruz Biotechnology, Dallas, Texas, USA; 1:2000) were used to incubate the membranes overnight at 4 °C. After HRP-conjugated specific antibody incubation, ECL reagent (Bio-Rad Laboratories Inc., Segrate (MI), Italy) was added to the immune complex and chemiluminescence was detected by ChemiDoc MP system (Bio-Rad Laboratories Inc., Segrate (MI), Italy). Optical densities of the bands were measured using ImageJ software (http://rsb.info.nih.gov/ij/ accessed on 15 March 2021) and normalized against bands relative to β-actin (1:5000, Abcam, Cambridge, UK).
On the technique in general: A western blot detects proteins with antibodies after separation by electrophoresis.

The next experiment deals with CD11b. In words: Western blotting quantification of CD11b in PFC and HIPP. Type of experiment: in vivo. The following applies: mice 7 days after icv Aβ 4 µM, sublingual AKBA 5 mg/kg 30 min earlier. Here is the method: as §1, §2, §5
In a further experiment the test system is NF-kB p65. The experiment is described as follows: Western blotting quantification of NF-kB p65 in PFC and HIPP. Type of experiment: in vivo. Particulars: mice 7 days after icv Aβ 4 µM, sublingual AKBA 5 mg/kg 30 min earlier. The protocol: as §1, §2, §5
In experiment [3] the test system is depressive-like behavior induced by Aβ. The following applies: through the increased levels of NA; no reference given; cited from earlier work.
In another experiment the test system is Aβ-treated rats. Further details: method as in PMID 28499898. Particulars: acute treatment; cited from earlier work.

In the case of “Aβ: soluble amyloid beta 1-42 peptide (Tocris), injected icv at 4 µM to evoke a depressive-like phenotype [reference compound]”, in the experiment with Aβ-treated mice [1], the “Latency to leak in the splash test” value is recorded as “significant increase in latency to leak” and the “Time spent performing self-care in the splash test” value is “reduction in time spent performing self-care”. The “Immobility time in the tail suspension test” value with Aβ-treated mice [2] is reported as “significant increase in the immobility time”. Further, the “NA levels in the HIPP” value with noradrenaline (NA) was “significant increase in catecholamine levels”. Besides, the “GLU levels in the HIPP” value in the experiment on glutamate (GLU) (HIPP) is reported as “significantly increased hippocampal GLU levels”. For the same compound, the “GLU levels in the PFC” value with glutamate (GLU) (PFC) was “increased GLU levels compared to SHAM mice”. For the same compound, the “KYN levels in the HIPP” value in the experiment on kynurenine (KYN) (HIPP) was “increase in KYN levels induced by the peptide”. For the same compound, in the experiment on kynurenine (KYN) (PFC), the “KYN levels in the PFC” value was “significant increase in cortical KYN levels”. For the same compound, the “5-HT levels in the HIPP” value in the experiment with 5-HT (HIPP) is recorded as “no differences among experimental groups”. Further, the “5-HT levels in the PFC” value with 5-HT (PFC) was “significant decrease in PFC”. The “GFAP levels in the HIPP (optical density normalized to actin)” value in the experiment with GFAP (HIPP) is given as “significant increase in hippocampal GFAP levels”. The “GFAP levels in the PFC (optical density normalized to actin)” value in the experiment with GFAP (PFC) was “significant increase in GFAP levels”. In addition, the “CD11b levels in the HIPP (optical density normalized to actin)” value in the experiment on CD11b (HIPP) is reported as “significant enhanced hippocampal levels”. The “CD11b content in the PFC (optical density normalized to actin)” value in the experiment on CD11b (PFC) is given as “no differences were found among experimental groups”. Also, in the experiment on NF-kB p65 (HIPP), the “NF-kB p65 content in the HIPP (optical density normalized to actin)” value was “significantly increased the levels of this transcription factor”. Also, in the experiment with NF-kB p65 (PFC), the “NF-kB p65 levels in the PFC (optical density normalized to actin)” value is “significantly increased cortical NF-kB levels”.
For `CNCCC(Oc1ccc(C(F)(F)F)cc1)c1ccccc1` (stereo not drawn) [fluoxetine], the “Depressive-like behavior induced by Aβ” value in experiment [3] is “reduced the depressive-like behavior”.
As for `CNC1(c2ccccc2Cl)CCCCC1=O` (stereo not drawn) [ketamine], the “Pro-depressive-like effect of Aβ in rats” value in the experiment on Aβ-treated rats was “able to revert”.
